Assays:
LRRK2 G2019S = LRRK2 G2019S (Homo sapiens, UniProt Q5S007, G2019S); assay: Kinase activity inhibition assay (ADP-Glo), LRRK2 G2019S; type: biochemical; conditions: for inhibition at 0.1 µM: read-out: LRRK2 G2019S inhibition rate at 100 nM, ATP 100 µM, compound at 100 nM
Procedure: (§1) The kinase activity inhibition assay was performed by ICE Bioscience (Beijing) using ADP-Glo and HTRF methods.
(§2) Table 1.1-1 ADP-Glo Buffer
(§3) Table 1.2-1 ADP-Glo Kinase and Substrate Formulation
(§4) SD is the standard error, and AVE is the average value. Table 2-1 LRRK2 Activity Inhibition Test Results

LRRK2 wt = LRRK2 wt (Homo sapiens, UniProt Q5S007); assay: Kinase activity inhibition assay (ADP-Glo), LRRK2 wt; type: biochemical; conditions: for inhibition at 0.1 µM: read-out: LRRK2 wt inhibition rate at 100 nM, ATP 20 µM, compound at 100 nM
Chain of LRRK2 wt (Q5S007 whole entry): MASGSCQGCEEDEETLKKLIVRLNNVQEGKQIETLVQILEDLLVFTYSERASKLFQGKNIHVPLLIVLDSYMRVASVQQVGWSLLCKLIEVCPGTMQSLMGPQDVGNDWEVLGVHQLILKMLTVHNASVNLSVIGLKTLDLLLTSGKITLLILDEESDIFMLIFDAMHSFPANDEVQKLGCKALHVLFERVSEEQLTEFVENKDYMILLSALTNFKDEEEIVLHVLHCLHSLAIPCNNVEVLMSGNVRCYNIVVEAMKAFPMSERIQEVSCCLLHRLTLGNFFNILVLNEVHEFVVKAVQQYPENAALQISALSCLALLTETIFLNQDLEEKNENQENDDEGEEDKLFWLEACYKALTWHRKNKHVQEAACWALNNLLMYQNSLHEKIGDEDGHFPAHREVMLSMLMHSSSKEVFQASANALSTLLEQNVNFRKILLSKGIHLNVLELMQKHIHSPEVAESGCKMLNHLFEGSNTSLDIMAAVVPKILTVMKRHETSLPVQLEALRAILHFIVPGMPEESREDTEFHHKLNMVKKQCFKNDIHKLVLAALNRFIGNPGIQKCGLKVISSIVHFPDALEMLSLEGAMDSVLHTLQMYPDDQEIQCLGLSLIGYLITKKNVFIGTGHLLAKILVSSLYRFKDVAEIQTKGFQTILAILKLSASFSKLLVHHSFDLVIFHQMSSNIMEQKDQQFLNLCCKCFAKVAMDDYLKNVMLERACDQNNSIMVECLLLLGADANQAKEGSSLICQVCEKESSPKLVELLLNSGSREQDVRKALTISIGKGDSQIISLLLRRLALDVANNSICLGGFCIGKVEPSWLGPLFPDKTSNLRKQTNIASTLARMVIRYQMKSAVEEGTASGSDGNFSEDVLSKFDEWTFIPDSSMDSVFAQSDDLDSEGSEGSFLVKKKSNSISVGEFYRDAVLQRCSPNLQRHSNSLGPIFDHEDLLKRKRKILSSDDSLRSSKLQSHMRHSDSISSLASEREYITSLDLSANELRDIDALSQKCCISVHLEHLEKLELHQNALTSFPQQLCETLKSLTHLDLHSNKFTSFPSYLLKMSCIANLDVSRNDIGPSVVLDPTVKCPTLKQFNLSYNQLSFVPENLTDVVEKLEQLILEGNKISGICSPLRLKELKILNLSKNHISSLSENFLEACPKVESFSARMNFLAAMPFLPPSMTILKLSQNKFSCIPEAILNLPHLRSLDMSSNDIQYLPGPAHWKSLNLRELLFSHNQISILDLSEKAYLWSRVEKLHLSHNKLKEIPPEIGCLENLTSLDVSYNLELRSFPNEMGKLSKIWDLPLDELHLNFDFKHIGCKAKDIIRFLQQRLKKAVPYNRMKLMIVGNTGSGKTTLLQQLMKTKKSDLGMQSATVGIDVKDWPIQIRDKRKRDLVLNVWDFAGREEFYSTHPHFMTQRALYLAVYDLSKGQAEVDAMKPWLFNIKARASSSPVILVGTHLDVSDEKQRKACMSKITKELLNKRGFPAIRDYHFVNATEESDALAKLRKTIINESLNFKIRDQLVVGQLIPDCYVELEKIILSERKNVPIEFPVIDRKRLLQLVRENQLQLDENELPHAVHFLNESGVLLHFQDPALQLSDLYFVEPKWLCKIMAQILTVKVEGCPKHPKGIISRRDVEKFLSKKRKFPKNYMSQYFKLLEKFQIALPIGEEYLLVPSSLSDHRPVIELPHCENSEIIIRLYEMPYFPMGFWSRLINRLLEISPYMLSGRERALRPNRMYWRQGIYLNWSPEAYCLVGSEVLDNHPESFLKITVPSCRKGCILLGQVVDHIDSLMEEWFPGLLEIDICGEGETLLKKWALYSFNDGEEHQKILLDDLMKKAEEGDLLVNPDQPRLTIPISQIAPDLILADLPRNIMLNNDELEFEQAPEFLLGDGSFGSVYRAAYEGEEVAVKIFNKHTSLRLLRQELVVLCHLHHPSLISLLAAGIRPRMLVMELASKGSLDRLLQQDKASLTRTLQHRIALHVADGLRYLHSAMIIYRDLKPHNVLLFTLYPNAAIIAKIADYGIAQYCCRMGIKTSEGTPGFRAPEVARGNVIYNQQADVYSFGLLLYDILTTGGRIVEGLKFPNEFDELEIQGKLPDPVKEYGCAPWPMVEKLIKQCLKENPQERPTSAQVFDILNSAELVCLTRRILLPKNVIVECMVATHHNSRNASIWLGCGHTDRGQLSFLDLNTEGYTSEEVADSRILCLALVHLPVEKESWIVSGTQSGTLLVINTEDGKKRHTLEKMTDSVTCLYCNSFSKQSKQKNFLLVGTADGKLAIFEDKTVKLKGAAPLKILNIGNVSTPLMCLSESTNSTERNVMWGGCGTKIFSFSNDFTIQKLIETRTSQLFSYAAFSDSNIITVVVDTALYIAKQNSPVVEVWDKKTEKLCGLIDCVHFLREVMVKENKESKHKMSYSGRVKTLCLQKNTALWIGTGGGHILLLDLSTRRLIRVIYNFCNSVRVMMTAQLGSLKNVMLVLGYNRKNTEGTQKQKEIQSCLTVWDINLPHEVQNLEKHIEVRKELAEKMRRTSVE
Procedure: as §1, §2, §3, §4

FGFR4 = FGFR4 (Homo sapiens, UniProt P22455); assay: Kinase activity inhibition assay (HTRF), FGFR4; type: biochemical; conditions: ATP 50 µM
Chain of FGFR4 (P22455 22-802): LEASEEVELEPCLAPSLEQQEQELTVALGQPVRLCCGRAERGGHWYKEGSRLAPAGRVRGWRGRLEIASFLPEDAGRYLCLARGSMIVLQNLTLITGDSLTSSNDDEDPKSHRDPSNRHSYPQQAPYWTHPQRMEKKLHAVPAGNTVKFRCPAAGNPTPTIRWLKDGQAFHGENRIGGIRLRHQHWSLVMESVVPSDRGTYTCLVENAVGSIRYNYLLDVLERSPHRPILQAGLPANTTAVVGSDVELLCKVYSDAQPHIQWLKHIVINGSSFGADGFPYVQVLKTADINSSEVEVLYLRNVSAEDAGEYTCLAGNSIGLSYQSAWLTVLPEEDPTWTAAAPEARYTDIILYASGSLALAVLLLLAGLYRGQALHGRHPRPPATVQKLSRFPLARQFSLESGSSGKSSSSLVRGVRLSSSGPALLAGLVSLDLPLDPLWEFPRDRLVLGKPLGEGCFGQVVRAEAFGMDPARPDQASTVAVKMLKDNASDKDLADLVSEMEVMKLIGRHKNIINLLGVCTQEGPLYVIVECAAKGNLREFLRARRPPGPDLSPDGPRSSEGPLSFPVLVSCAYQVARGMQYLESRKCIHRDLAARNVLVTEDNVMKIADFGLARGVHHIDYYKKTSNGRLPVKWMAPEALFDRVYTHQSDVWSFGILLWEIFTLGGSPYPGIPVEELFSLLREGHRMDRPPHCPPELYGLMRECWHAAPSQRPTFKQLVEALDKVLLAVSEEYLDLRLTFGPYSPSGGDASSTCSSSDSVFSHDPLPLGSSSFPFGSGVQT
Procedure: as §1
(§5) Table 1.2-2 HTRF Kinase and Substrate Formulation
(§6) • 1) 2×ATP/substrate solution and 2×kinase/metal ion solution were prepared using kinase reaction buffer; • 2) 20 nL (ADP-GLo) or 40 nL (HTRF) of compound dilution was transferred using Echo 655 onto a 384-well assay plate; after centrifugation, 2 µL of 2×kinase and metal ion solution were added to the 384-well assay plate, centrifuged at 1000 rpm for 1 min, and incubated at 25°C for 10 min; • 3) 2 µL of 2×substrate and ATP solution were added to the 384-well assay plate, centrifuged at 1000 rpm for 1 min, and incubated at 25°C for 60 min. • 4) 4 µL of ADP-Glo was transferred to the 384-well assay plate, entrifuged at 1000 rpm for 1 min, and incubated at 25°C for 40 min. • 5) 8 µL of detection solution was transferred to the 384-well assay plate, centrifuged at 1000 rpm for 1 min, and incubated at 25°C for 40 min. • 6) Luminescence signals was read using a multifunctional microplate reader.
as §4

FGFR2 N549H = FGFR2 N549H (Homo sapiens, UniProt P21802, N549H); assay: Kinase activity inhibition assay (HTRF), FGFR2 N549H; type: biochemical; conditions: ATP 9 µM
Procedure: as §1, §5, §4

FGFR2 = FGFR2 (Homo sapiens, UniProt P21802); assay: Kinase activity inhibition assay (HTRF), FGFR2; type: biochemical; conditions: ATP 20 µM
Procedure: as §1, §5, §6, §4

PDGFRα = PDGFRα (Homo sapiens, UniProt P16234); assay: Kinase activity inhibition assay (HTRF), PDGFRα; type: biochemical; conditions: ATP 0.5 µM
Chain of PDGFRα (P16234 24-1089): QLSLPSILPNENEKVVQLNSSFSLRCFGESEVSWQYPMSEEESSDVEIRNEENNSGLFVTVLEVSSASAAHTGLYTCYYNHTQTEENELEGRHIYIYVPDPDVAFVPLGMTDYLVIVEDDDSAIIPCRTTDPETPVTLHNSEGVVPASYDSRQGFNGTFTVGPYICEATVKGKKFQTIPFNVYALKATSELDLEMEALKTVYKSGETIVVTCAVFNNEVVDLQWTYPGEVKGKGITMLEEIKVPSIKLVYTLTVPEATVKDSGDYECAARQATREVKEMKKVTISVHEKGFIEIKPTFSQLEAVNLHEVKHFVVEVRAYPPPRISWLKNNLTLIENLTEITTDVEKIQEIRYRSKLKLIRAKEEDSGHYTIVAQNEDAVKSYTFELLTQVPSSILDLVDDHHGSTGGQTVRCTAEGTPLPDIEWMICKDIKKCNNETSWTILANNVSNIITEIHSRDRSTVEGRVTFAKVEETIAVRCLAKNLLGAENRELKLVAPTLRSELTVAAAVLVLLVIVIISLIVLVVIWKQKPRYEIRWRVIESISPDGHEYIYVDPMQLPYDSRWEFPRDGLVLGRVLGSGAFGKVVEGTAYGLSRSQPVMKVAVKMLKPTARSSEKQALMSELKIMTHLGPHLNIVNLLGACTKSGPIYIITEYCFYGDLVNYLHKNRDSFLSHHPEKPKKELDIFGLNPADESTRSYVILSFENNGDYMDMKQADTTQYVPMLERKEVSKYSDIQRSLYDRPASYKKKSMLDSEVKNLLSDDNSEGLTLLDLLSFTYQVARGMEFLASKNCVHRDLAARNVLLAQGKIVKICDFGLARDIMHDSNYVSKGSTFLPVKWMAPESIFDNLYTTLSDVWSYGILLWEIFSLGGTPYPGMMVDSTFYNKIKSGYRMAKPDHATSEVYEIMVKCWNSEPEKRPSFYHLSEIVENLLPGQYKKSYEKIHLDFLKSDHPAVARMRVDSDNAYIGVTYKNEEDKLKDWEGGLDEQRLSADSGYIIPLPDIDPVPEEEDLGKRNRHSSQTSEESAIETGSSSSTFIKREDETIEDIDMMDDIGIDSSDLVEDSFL
Procedure: as §1, §5, §6, §4

DYRK2 = DYRK2 (Homo sapiens, UniProt Q92630); assay: Kinase activity inhibition assay (ADP-Glo), DYRK2; type: biochemical; conditions: ATP 5 µM
Chain of DYRK2 (Q92630 whole entry): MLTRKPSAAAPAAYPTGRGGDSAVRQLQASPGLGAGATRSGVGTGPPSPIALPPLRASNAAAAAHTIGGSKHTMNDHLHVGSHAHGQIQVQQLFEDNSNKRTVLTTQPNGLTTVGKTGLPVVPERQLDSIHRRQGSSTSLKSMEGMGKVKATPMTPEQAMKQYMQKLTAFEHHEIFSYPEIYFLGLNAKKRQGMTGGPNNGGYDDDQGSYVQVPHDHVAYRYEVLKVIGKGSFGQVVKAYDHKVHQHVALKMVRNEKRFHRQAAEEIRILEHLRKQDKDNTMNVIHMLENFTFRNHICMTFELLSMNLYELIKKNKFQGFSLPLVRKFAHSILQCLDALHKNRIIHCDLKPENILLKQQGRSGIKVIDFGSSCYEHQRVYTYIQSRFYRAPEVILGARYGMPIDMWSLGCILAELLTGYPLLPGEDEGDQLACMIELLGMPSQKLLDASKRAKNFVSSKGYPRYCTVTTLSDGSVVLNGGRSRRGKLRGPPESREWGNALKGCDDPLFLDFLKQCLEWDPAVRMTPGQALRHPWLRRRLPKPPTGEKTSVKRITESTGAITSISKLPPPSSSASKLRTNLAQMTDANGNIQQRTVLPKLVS
Procedure: as §1, §2, §3, §4

FGFR1 = FGFR1 (Homo sapiens, UniProt P11362); assay: Kinase activity inhibition assay (HTRF), FGFR1; type: biochemical; conditions: ATP 40 µM
Procedure: as §1, §5, §6, §4

FGFR4 N535K = FGFR4 N535K (Homo sapiens, UniProt P22455, N535K); assay: Kinase activity inhibition assay (HTRF), FGFR4 N535K; type: biochemical; conditions: ATP 100 µM
Chain of FGFR4 N535K (P22455 22-802 N535K): as the sequence (P22455 22-802) above, with N514K counted along it
Procedure: as §1, §5, §6, §4

FGFR2 V564I = FGFR2 V564I (Homo sapiens, UniProt P21802, V564I); assay: Kinase activity inhibition assay (HTRF), FGFR2 V564I; type: biochemical; conditions: ATP 20 µM
Procedure: as §1, §5, §6, §4

FLT3 = FLT3 (Homo sapiens, UniProt P36888); assay: Kinase activity inhibition assay (HTRF), FLT3; type: biochemical; conditions: ATP 2 µM
Procedure: as §1, §5, §6, §4

FGFR3 K650M = FGFR3 K650M (Homo sapiens, UniProt P22607, K650M); assay: Kinase activity inhibition assay (HTRF), FGFR3 K650M; type: biochemical; conditions: ATP 12 µM
Procedure: as §1, §5, §4

FGFR1 V561M = FGFR1 V561M (Homo sapiens, UniProt P11362, V561M); assay: Kinase activity inhibition assay (HTRF), FGFR1 V561M; type: biochemical; conditions: ATP 20 µM
Procedure: as §1, §5, §6, §4

FLT1 = FLT1 (Homo sapiens, UniProt P17948); assay: Kinase activity inhibition assay (ADP-Glo), FLT1; type: biochemical; conditions: ATP 50 µM
Procedure: as §1, §2, §3, §6, §4

[1] = Oral pharmacokinetic study in rats; conditions: rat, in vivo, 5 mg/kg, male SD rats, oral gavage, dose 5mpk, 1% MC
Procedure: Drug preparation: 1% MC was added to the compound, ground, and shaken uniformly. Samples were collected at 5 min, 15 min, 30 min, 1 h, 2 h, 4 h, and 8 h post-dose, followed by analysis using liquid chromatography-tandem mass spectrometry (LC-MS/MS). Table 3 PK Data of Selected Compounds

TYRO3 = TYRO3 (Homo sapiens, UniProt Q06418); assay: Kinase activity inhibition assay (HTRF), TYRO3; type: biochemical; conditions: ATP 0.5 µM
Procedure: as §1, §5, §4

FGFR4 V550L = FGFR4 V550L (Homo sapiens, UniProt P22455, V550L); assay: Kinase activity inhibition assay (ADP-Glo), FGFR4 V550L; type: biochemical; conditions: ATP 20 µM
Chain of FGFR4 V550L (P22455 22-802 V550L): as the sequence (P22455 22-802) above, with V529L counted along it
Procedure: as §1, §2, §3, §4

FGFR3 V555M = FGFR3 V555M (Homo sapiens, UniProt P22607, V555M); assay: Kinase activity inhibition assay (HTRF), FGFR3 V555M; type: biochemical; conditions: ATP 20 µM
Procedure: as §1, §5, §6, §4

KDR = KDR (Homo sapiens, UniProt P35968); assay: Kinase activity inhibition assay (HTRF), KDR; type: biochemical; conditions: ATP 4 µM
Procedure: as §1, §5, §4

FGFR3 = FGFR3 (Homo sapiens, UniProt P22607); assay: Kinase activity inhibition assay (HTRF), FGFR3; type: biochemical; conditions: ATP 50 µM
Procedure: as §1, §5, §6, §4

RET V804L = RET V804L (Homo sapiens, UniProt P07949, V804L); assay: Kinase activity inhibition assay (HTRF), RET V804L; type: biochemical; conditions: ATP 5 µM
Procedure: as §1, §5, §6, §4

FGFR4 V550M = FGFR4 V550M (Homo sapiens, UniProt P22455, V550M); assay: Kinase activity inhibition assay (HTRF), FGFR4 V550M; type: biochemical; conditions: ATP 60 µM
Procedure: as §1, §5, §4

FGFR3 V555L = FGFR3 V555L (Homo sapiens, UniProt P22607, V555L); assay: Kinase activity inhibition assay (HTRF), FGFR3 V555L; type: biochemical; conditions: ATP 20 µM
Procedure: as §1, §5, §6, §4

FGFR2 V564F = FGFR2 V564F (Homo sapiens, UniProt P21802, V564F); assay: Kinase activity inhibition assay (HTRF), FGFR2 V564F; type: biochemical; conditions: ATP 15 µM
Procedure: as §1, §5, §6, §4

FLT4 = FLT4 (Homo sapiens, UniProt P35916); assay: Kinase activity inhibition assay (HTRF), FLT4; type: biochemical; conditions: ATP 32 µM
Procedure: as §1, §5, §6, §4

Chain of LRRK2 G2019S (Q5S007 whole entry G2019S): as the sequence (Q5S007 whole entry) above, with G2019S counted along it

With `Cc1nn2cc1Nc1ncc3c(Cl)nn(c3n1)CCCNC(=O)C2(C)C` [Example T-8, (E)-1^3-Chloro-3^3,4,4-trimethyl-1^1H,3^1H-2,6-diaza-1(6,1)pyrazolo[3,4-d]pyrimidine-3(4,1)-pyrazolacyclononan-5-one] the inhibition at 0.1 µM (LRRK2 G2019S) was 52% and the inhibition at 0.1 µM (LRRK2 wt) was 64%.

Molecule `Cc1nn2cc1Nc1ncc(C(F)(F)F)c(n1)NCCNC(=O)C2(C)C` [Example T-12, (E)-3^3,4,4-Trimethyl-1^5-(trifluoromethyl)-3^1H-2,6,9-triaza-1(2,4)-pyrimidina-3(4,1)-pyrazolacyclononan-5-one] has an inhibition at 0.3 µM (LRRK2 G2019S; read-out: LRRK2 G2019S inhibition rate @300 nM, ATP 100 µM, compound at 300 nM) of 0.34% and an inhibition at 0.1 µM (LRRK2 wt) of 5.7%.

In the case of `Cc1nn2cc1Nc1ncc(C(F)(F)F)c(n1)NCCCCNC(=O)C2(C)C` [Example T-13, (E)-3^3,4,4-Trimethyl-1^5-(trifluoromethyl)-3^1H-2,6,11-triaza-1(2,4)-pyrimidina-3(4,1)-pyrazolacycloundecan-5-one], the inhibition at 0.1 µM (LRRK2 G2019S) is reported as 92% and the inhibition at 0.1 µM (LRRK2 wt) is reported as 96%.

With `Cc1nn2cc1Nc1ncc(C(F)(F)F)c(n1)NCCCNC(=O)C2` [Example T-14, (E)-3^3-Methyl-1^5-(trifluoromethyl)-3^1H-2,6,10-triaza-1(2,4)-pyrimidina-3(4,1)-pyrazolacyclodecan-5-one] the inhibition at 0.1 µM (LRRK2 G2019S) was 84% and the inhibition at 0.1 µM (LRRK2 wt) was 87%.

In the case of `Cc1nn2cc1Nc1ncc(C(F)(F)F)c(n1)NCCNC(=O)C2` [Example T-15, (E)-3^3-Methyl-1^5-(trifluoromethyl)-3^1H-2,6,9-triaza-1(2,4)-pyrimidina-3(4,1)-pyrazolacyclononan-5-one], the inhibition at 0.1 µM (LRRK2 G2019S) is reported as -9.6% and the inhibition at 0.3 µM (LRRK2 wt; read-out: LRRK2 wt inhibition rate @300 nM, ATP 20 µM, compound at 300 nM) is reported as 5%.

`Cc1nn2cc1Nc1ncc3c(Cl)cc(n3n1)CCCNC(=O)C2(C)C` [Example T-25, (1^1Z,3^4E)-1^5-Chloro-3^3,4,4-trimethyl-3^1H-2,6-diaza-1(2,7)-pyrrolo[2,1-f][1,2,4]triazine-3(4,1)-pyrazolacyclononan-5-one] showed an IC50 (FGFR4) of 58.3 nM, an IC50 (FGFR2 N549H) of 17.4 nM and an IC50 (FGFR2) of 31.9 nM. For the same molecule, the IC50 (PDGFRα) was 67 nM, the IC50 (DYRK2) was 27.7 nM and the IC50 (FGFR1) was 180 nM. The IC50 (FGFR4 N535K) was 621 nM, the IC50 (FGFR2 V564I) was 60.2 nM and the IC50 (FLT3) was 88.1 nM. The IC50 (FGFR3 K650M) was 14.1 nM, the IC50 (FGFR1 V561M) was 13.8 nM and the IC50 (FLT1) was 8.83 nM. The Cmax [1] was 630 ng/mL, the Tmax [1] was 1 h and the half-life [1] was 1.73 h. The AUC(0-t) at 8 h ([1]; read-out: AUC0-8) was 2210 ng·h/mL, the IC50 (TYRO3) was 56.1 nM and the IC50 (FGFR4 V550L) was 208 nM. It also gave an IC50 (FGFR3 V555M) of 5.07 nM, an IC50 (KDR) of 7.67 nM and an IC50 (FGFR3) of 67.5 nM. The IC50 (RET V804L) was 43.9 nM, the IC50 (FGFR4 V550M) was 105 nM and the IC50 (FGFR3 V555L) was 8.81 nM. The IC50 (FGFR2 V564F) was 1.73 nM and the IC50 (FLT4) was 19.2 nM.

`Cc1nn2cc1Nc1ncc(C(F)(F)F)c(n1)NC(C)CCNC(=O)C2(C)C` (stereo not shown) [Example T-46, (E)-3^3,4,4,9-Tetramethyl-1^5-(trifluoromethyl)-3^1H-2,6,10-triaza-1(2,4)-pyrimidina-3(4,1)-pyrazolacyclodecan-5-one] showed an inhibition at 0.1 µM (LRRK2 wt) of 95.1%.

— patent publication EP4620959A1, “CYCLIC COMPOUNDS USED AS MULTI-TARGET KINASE INHIBITORS AND PREPARATION METHOD THEREFOR” (Shanghai Institute of Organic Chemistry, Chinese Academy of …, priority 2022, dated 2024)
